According to ChEMBL document CHEMBL4041467, “Synthesis of novel 15-membered 8a-azahomoerythromycin A acylides: Consequences of structural modification at the C-3 and C-6 position on antibacterial activity” (Eur J Med Chem, 2017):
≈ marks a conversion by molar mass, not a printed value.

Experiments:
Type in all cases: functional
Haemophilus influenzae = assay: Antibacterial activity against Haemophilus influenzae by agar microdilution method
Streptococcus pneumoniae [1] = assay: Antibacterial activity against erythromycin susceptible Streptococcus pneumoniae by agar microdilution method
Streptococcus pyogenes [2] = assay: Antibacterial activity against erythromycin susceptible Streptococcus pyogenes by agar microdilution method
Streptococcus pneumoniae [3] = assay: Antibacterial activity against constitutively macrolide/lincosamide/streptogramin B-resistant Streptococcus pneumoniae by agar microdilution method
Staphylococcus aureus [4] = assay: Antibacterial activity against erythromycin susceptible Staphylococcus aureus by agar microdilution method
Staphylococcus aureus [5] = assay: Antibacterial activity against inducibly macrolide/lincosamide/streptogramin B-resistant Staphylococcus aureus by agar microdilution method
Streptococcus pneumoniae [6] = assay: Antibacterial activity against Mef-mediated macrolide efflux resistant Streptococcus pneumoniae by agar microdilution method
Streptococcus pyogenes [7] = assay: Antibacterial activity against constitutively macrolide/lincosamide/streptogramin B-resistant Streptococcus pyogenes by agar microdilution method
Staphylococcus aureus [8] = assay: Antibacterial activity against constitutively macrolide/lincosamide/streptogramin B-resistant Staphylococcus aureus by agar microdilution method
Streptococcus pyogenes [9] = assay: Antibacterial activity against Mef-mediated macrolide efflux resistant Streptococcus pyogenes by agar microdilution method

| Structure (SMILES) | MIC (Haemophilus influenzae) [µg/mL] | MIC (Streptococcus pneumoniae [1]) [µg/mL] | MIC (Streptococcus pyogenes [2]) [µg/mL] | MIC (Streptococcus pneumoniae [3]) [µg/mL] | MIC (Staphylococcus aureus [4]) [µg/mL] | MIC (Staphylococcus aureus [5]) [µg/mL] | MIC (Streptococcus pneumoniae [6]) [µg/mL] | MIC (Streptococcus pyogenes [7]) [µg/mL] | MIC (Staphylococcus aureus [8]) [µg/mL] | MIC (Streptococcus pyogenes [9]) [µg/mL] |
| --- | --- | --- | --- | --- | --- | --- | --- | --- | --- | --- |
| C=CCO[C@]1(C)C[C@@H](C)NC(=O)[C@H](C)[C@@H](O)[C@](C)(O)[C@@H](CC)OC(=O)[C@H](C)[C@@H](OC(=O)CCNC(C)C(=O)Nc2cnc3ccccc3c2)[C@H](C)[C@H]1O[C@@H]1O[C@H](C)C[C@H](N(C)C)[C@H]1O (some centres not stated) | 4 (≈ 4.44 µM) | ≤ 0.125 | ≤ 0.125 | 16 (≈ 17.8 µM) | 0.5 (≈ 0.555 µM) | 1 (≈ 1.11 µM) | 0.25 (≈ 0.278 µM) | 8 (≈ 8.89 µM) | > 64 | 1 (≈ 1.11 µM) |
| C=CCO[C@]1(C)C[C@@H](C)NC(=O)[C@H](C)[C@@H](O)[C@](C)(O)[C@@H](CC)OC(=O)[C@H](C)[C@@H](OC(=O)CCNC(C)C(=O)Nc2ccc([N+](=O)[O-])cc2)[C@H](C)[C@H]1O[C@@H]1O[C@H](C)C[C@H](N(C)C)[C@H]1O (some centres not stated) | 8 (≈ 8.95 µM) | ≤ 0.125 | ≤ 0.125 | > 64 | 1 (≈ 1.12 µM) | 1 (≈ 1.12 µM) | 0.25 (≈ 0.28 µM) | > 64 | > 64 | 0.5 (≈ 0.559 µM) |
| C=CCO[C@]1(C)C[C@@H](C)NC(=O)[C@H](C)[C@@H](O)[C@](C)(O)[C@@H](CC)OC(=O)[C@H](C)[C@@H](OC(=O)CCNC(C)Cc2ccc([N+](=O)[O-])cc2)[C@H](C)[C@H]1O[C@@H]1O[C@H](C)C[C@H](N(C)C)[C@H]1O (some centres not stated) | 8 (≈ 9.25 µM) | ≤ 0.125 | ≤ 0.125 | > 64 | 1 (≈ 1.16 µM) | 1 (≈ 1.16 µM) | 0.5 (≈ 0.578 µM) | > 64 | > 64 | 1 (≈ 1.16 µM) |
| NCCNc1cc2c(cc1F)c(=O)c(C(=O)O)cn2C1CC1 | > 64 | > 64 | > 64 | – | > 64 | – | – | – | – | – |
| C=CCO[C@]1(C)C[C@@H](C)NC(=O)[C@H](C)[C@@H](O)[C@](C)(O)[C@@H](CC)OC(=O)[C@H](C)[C@@H](OC(=O)CCNCCCc2ccccc2)[C@H](C)[C@H]1O[C@@H]1O[C@H](C)C[C@H](N(C)C)[C@H]1O | 16 (≈ 19.5 µM) | 1 (≈ 1.22 µM) | 2 (≈ 2.44 µM) | > 64 | 2 (≈ 2.44 µM) | 4 (≈ 4.88 µM) | 4 (≈ 4.88 µM) | > 64 | > 64 | 8 (≈ 9.76 µM) |
| C=CCO[C@]1(C)C[C@@H](C)NC(=O)[C@H](C)[C@@H](O)[C@](C)(O)[C@@H](CC)OC(=O)[C@H](C)[C@@H](OC(=O)CCN(C)CCc2ccc([N+](=O)[O-])cc2)[C@H](C)[C@H]1O[C@@H]1O[C@H](C)C[C@H](N(C)C)[C@H]1O | 8 (≈ 9.25 µM) | ≤ 0.125 | ≤ 0.125 | > 64 | 0.5 (≈ 0.578 µM) | 0.5 (≈ 0.578 µM) | – | > 64 | > 64 | – |
| C=CCO[C@]1(C)C[C@@H](C)NC(=O)[C@H](C)[C@@H](O)[C@](C)(O)[C@@H](CC)OC(=O)[C@H](C)[C@@H](OC(=O)CCNCCCCc2ccccc2)[C@H](C)[C@H]1O[C@@H]1O[C@H](C)C[C@H](N(C)C)[C@H]1O | 16 (≈ 19.2 µM) | 0.5 (≈ 0.599 µM) | 2 (≈ 2.4 µM) | > 64 | 2 (≈ 2.4 µM) | 8 (≈ 9.59 µM) | 4 (≈ 4.8 µM) | > 64 | > 64 | 2 (≈ 2.4 µM) |
| CC[C@H]1OC(=O)[C@H](C)C(=O)[C@H](C)[C@@H](O[C@@H]2O[C@H](C)C[C@H](N(C)C)[C@H]2O)[C@](C)(OCC=Cc2cnc3ccccc3c2)C[C@@H](C)C(=O)[C@H](C)[C@H]2NC(=O)O[C@@]21C [CETHROMYCIN] | 2 (≈ 2.61 µM) | ≤ 0.06 | ≤ 0.06 | ≤ 0.125 | ≤ 0.125 | 0.25 (≈ 0.326 µM) | – | 1 (≈ 1.31 µM) | > 64 | ≤ 0.125 |
| C=CCO[C@]1(C)C[C@@H](C)NC(=O)[C@H](C)[C@@H](O)[C@](C)(O)[C@@H](CC)OC(=O)[C@H](C)[C@@H](OC(=O)CCN2CCN(c3ccc4c(c3)c(=O)c(C(=O)O)cn4C3CC3)CC2)[C@H](C)[C@H]1O[C@@H]1O[C@H](C)C[C@H](N(C)C)[C@H]1O | 16 (≈ 16 µM) | 2 (≈ 2 µM) | 4 (≈ 4.01 µM) | 16 (≈ 16 µM) | 4 (≈ 4.01 µM) | 8 (≈ 8.01 µM) | 4 (≈ 4.01 µM) | 32 (≈ 32.1 µM) | > 64 | 16 (≈ 16 µM) |
| C=CCO[C@]1(C)C[C@@H](C)NC(=O)[C@H](C)[C@@H](O)[C@](C)(O)[C@@H](CC)OC(=O)[C@H](C)[C@@H](OC(=O)CCNC(C)Cc2ccccc2)[C@H](C)[C@H]1O[C@@H]1O[C@H](C)C[C@H](N(C)C)[C@H]1O (some centres not stated) | 8 (≈ 9.76 µM) | 1 (≈ 1.22 µM) | 1 (≈ 1.22 µM) | > 64 | 4 (≈ 4.88 µM) | 4 (≈ 4.88 µM) | 2 (≈ 2.44 µM) | > 64 | > 64 | 2 (≈ 2.44 µM) |
| C=CCO[C@]1(C)C[C@@H](C)NC(=O)[C@H](C)[C@@H](O)[C@](C)(O)[C@@H](CC)OC(=O)[C@H](C)[C@@H](OC(=O)CCNC(C)C(=O)Nc2ccccc2)[C@H](C)[C@H]1O[C@@H]1O[C@H](C)C[C@H](N(C)C)[C@H]1O (some centres not stated) | 16 (≈ 18.8 µM) | 0.25 (≈ 0.294 µM) | 0.5 (≈ 0.589 µM) | > 64 | 2 (≈ 2.36 µM) | 4 (≈ 4.71 µM) | 1 (≈ 1.18 µM) | > 64 | > 64 | 2 (≈ 2.36 µM) |
| CC[C@H]1OC(=O)[C@H](C)[C@@H](OC(=O)CCNCCNc2cc3c(=O)c(C(=O)O)cn(C4CC4)c3cc2Cl)[C@H](C)[C@@H](O[C@@H]2O[C@H](C)C[C@H](N(C)C)[C@H]2O)[C@](C)(OC/C=C/c2cnc3ccccc3n2)C[C@@H](C)NC(=O)[C@H](C)[C@@H](O)[C@]1(C)O | 4 (≈ 3.52 µM) | ≤ 0.125 | ≤ 0.125 | 1 (≈ 0.881 µM) | 0.5 (≈ 0.441 µM) | 1 (≈ 0.881 µM) | 0.5 (≈ 0.441 µM) | 16 (≈ 14.1 µM) | > 64 | 1 (≈ 0.881 µM) |
| C=CCO[C@]1(C)C[C@@H](C)NC(=O)[C@H](C)[C@@H](O)[C@](C)(O)[C@@H](CC)OC(=O)[C@H](C)[C@@H](OC(=O)CCN2CCN(c3cc4c(cc3F)c(=O)c(C(=O)OC)cn4C3CC3)CC2)[C@H](C)[C@H]1O[C@@H]1O[C@H](C)C[C@H](N(C)C)[C@H]1O | 8 (≈ 7.77 µM) | 2 (≈ 1.94 µM) | 2 (≈ 1.94 µM) | 8 (≈ 7.77 µM) | 2 (≈ 1.94 µM) | 4 (≈ 3.88 µM) | 4 (≈ 3.88 µM) | 32 (≈ 31.1 µM) | > 64 | 8 (≈ 7.77 µM) |
| O=C(O)c1cn(C2CC2)c2cc(N3CCNCC3)c(F)cc2c1=O [CIPROFLOXACIN] | ≤ 0.125 | ≤ 0.125 | 2 (≈ 6.04 µM) | 0.25 (≈ 0.754 µM) | ≤ 0.125 | – | 0.25 (≈ 0.754 µM) | 0.5 (≈ 1.51 µM) | – | ≤ 0.125 |
| CC[C@H]1OC(=O)[C@H](C)[C@@H](OC(=O)CCNCCNc2cc3c(=O)c(C(=O)O)cn(C4CC4)c3cc2Cl)[C@H](C)[C@@H](O[C@@H]2O[C@H](C)C[C@H](N(C)C)[C@H]2O)[C@](C)(OC/C=C/c2ccnc3ccccc23)C[C@@H](C)NC(=O)[C@H](C)[C@@H](O)[C@]1(C)O | 16 (≈ 14.1 µM) | 0.25 (≈ 0.221 µM) | 0.5 (≈ 0.441 µM) | 4 (≈ 3.53 µM) | 0.5 (≈ 0.441 µM) | 0.5 (≈ 0.441 µM) | 1 (≈ 0.882 µM) | 32 (≈ 28.2 µM) | > 64 | 4 (≈ 3.53 µM) |
| O=C(O)c1cn(C2CC2)c2ccc(N3CCNCC3)cc2c1=O | > 64 | > 64 | > 64 | – | > 64 | – | – | – | – | – |
| NCCNc1cc2c(=O)c(C(=O)O)cn(C3CC3)c2cc1Cl | > 64 | > 64 | > 64 | – | > 64 | – | – | – | – | – |
